Data on 43 molecules can be found in PMC6445162, “Effects of NS2B-NS3 protease and furin inhibition on West Nile and Dengue virus replication” (Journal of Enzyme Inhibition and Medicinal Chemistry, 2017).

Peptide text beside a SMILES is read from it.

For experiment [1], the target named is T1, DENV serotype 2 NS2B-NS3 protease (Dengue virus type 2, UniProt P14340).
T1 construct: The proteolytic activity of WNV and DENV is located in the N-terminal part of its NS3 protein; made in house
The experiment in a line: Enzyme kinetic inhibition of DENV-2 NS2B-NS3 protease construct. The format is biochemical, Dengue virus serotype 2. The following applies: for inhibition at 100 µM: 100 μM inhibitor in the presence of 125 μM substrate, read-out: % Inhib. (DENV). The procedure:
(§1) All measurements were performed at room temperature in black flat-bottom 96-well plates (Nunc, Langenselbold, Germany) using microplate readers (Tecan Safire^2, λex = 380 nm and λem = 460 nm, Tecan Group Ltd., Männedorf, Switzerland or Fluoroskan Ascent type 374, λex = 355 nm and λem = 460 nm; Thermo Fisher Scientific, Vantaa, Finland). The assays with the flavivirus protease constructs were performed with 125 μl buffer (100 mM Tris pH 8.5 containing 20% glycerol, 0.01% Triton X-100, and the inhibitor), 50 μl substrate solution, and were started by addition of 25 μl enzyme solution (total assay volume 200 μl).
(§2) The DENV serotype 2 NS2B-NS3 protease construct was prepared from an identical clone as described by D’Arcy et al.[26] The purification of the protease was carried out in a buffer with high ion-strength and low pH value, in the absence of glycerol (20 mM Bis-Tris, 500 mM NaCl, pH 6.3), in order to prevent autolysis of the enzyme. Purification was performed by using a 5 ml HisTrapTM FF column (GE Healthcare) and subsequently, a HiLoad 16/60 SuperdexTM 75 column (GE Healthcare). The assays with the DENV-2 NS2B-NS3^pr° (∼39 nM in well) were performed with the substrate Phac-Lys-Arg-Arg-AMC ×3 TFA (125 µM, 62.5 µM and 31.25 µM in assay, KM = 60 µM). All Ki values were obtained from Dixon plots[27] and are the average of at least two measurements. Due to the weak potency of most compounds against the DENV-2 NS2B-NS3 protease construct, only the percentage of inhibition at a constant inhibitor concentration of 100 µM in the presence of 125 µM substrate was determined.

Experiment [2] addresses T2, WNV NS2B-NS3 protease (West Nile virus, UniProt P06935).
T2 construct: WNV NS2B 40-amino acid cofactor together with the NS3 protease domain
In words: Enzyme kinetic inhibition of WNV NS2B-NS3 protease construct (Dixon plot). It is filed as biochemical. The following applies: covalently linked WNV NS2B-NS3 construct; substrate Phac-Leu-Lys-Lys-Arg-AMC; Dixon plots, average of at least two measurements. How it is done: as §1
For measurements with the covalently linked WNV NS2B-NS3 protease construct (∼4 nM in assay) the substrate Phac-Leu-Lys-Lys-Arg-AMC ×3 TFA (50 µM, 100 µM and 200 µM in assay, KM = 47.5 µM) was used, as described previously.
as §2

In experiment [3] the target is covalently linked WNV NS2B-NS3 protease construct (West Nile virus) (UniProt P06935). The experiment in a line: enzyme inhibition kinetics (Ki from Dixon plots, fluorogenic substrate); WNV NS2B-NS3 construct ~4 nM in assay; substrate Phac-Leu-Lys-Lys-Arg-AMC 50, 100 and 200 µM (KM = 47.5 µM); 100 mM Tris pH 8.5, 20% glycerol, 0.01% Triton X-100; room temperature; Ki the average of at least two measurements.

On to `N=C(N)NCCC[C@H](NC(=O)[C@H](CCCCN)NC(=O)[C@H](CCCCN)NC(=O)Cc1ccc(Cl)c(Cl)c1)C(=O)NCC(N)=O` [inhibitor 30] (HELM PEPTIDE1{[O=C(Cc1ccc(Cl)c(Cl)c1)[*:2]].K.K.R.G.[am]}$$$$V2.0), for which, in experiment [1], the inhibition at 100 µM stood at 45%. The molecule also showed a Ki in experiment [2] of 1.8 µM. Take `N=C(N)NCCC[C@H](NC(=O)[C@H](CCCCN)NC(=O)[C@H](CCCCN)NC(=O)Cc1ccc(Cl)c(Cl)c1)C(N)=O` [inhibitor 29]: the inhibition at 100 µM in experiment [1] was 25.1%. Moreover, the Ki in experiment [2] turned out to be 1.13 µM. `N=C(N)NCCC[C@H](NC(=O)[C@H](CCCCN)NC(=O)[C@H](CCCCN)NC(=O)[C@@H](N)C12CC3CC(CC(C3)C1)C2)C(N)=O` [inhibitor 44] (HELM PEPTIDE1{[N[C@H](C(=O)[*:2])C12CC3CC(CC(C3)C1)C2].K.K.R.[am]}$$$$V2.0): the inhibition at 100 µM in experiment [1] is 14.6%. Also, in experiment [2], the Ki was found to be 70 µM. In experiment [2], `N=C(N)NCCC[C@H](NC(=O)[C@H](CCCCN)NC(=O)[C@H](CCCCN)NC(=O)Cc1ccccc1)C(=O)NCCCCCC(N)=O` [inhibitor 26] (HELM PEPTIDE1{[O=C(Cc1ccccc1)[*:2]].K.K.R.[O=C(CCCCCN[*:1])[*:2]].[am]}$$$$V2.0) gave a Ki of 17 µM. Consider `N=C(N)NCCC[C@H](NC(=O)[C@H](CCCCN)NC(=O)[C@H](CCCCN)NC(=O)Cc1cccc(CNC(=N)N)c1)C(N)=O` [inhibitor 37], for which the inhibition at 100 µM in experiment [1] is 32.3%. In experiment [2], this molecule yielded a Ki of 0.18 µM. In the same order, the values of `N=C(N)NCCC[C@H](NC(=O)[C@H](CCCCN)NC(=O)[C@H](CCCCN)NC(=O)Cc1cccc(N)c1)C(N)=O` [inhibitor 31] are 27.5% and 1.2 µM.

`C[C@@H](NC(=O)[C@H](CCCNC(=N)N)NC(=O)[C@H](CCCCN)NC(=O)[C@H](CCCCN)NC(=O)Cc1ccccc1)C(N)=O` [inhibitor 20] (HELM PEPTIDE1{[O=C(Cc1ccccc1)[*:2]].K.K.R.[dA].[am]}$$$$V2.0): in experiment [1], the inhibition at 100 µM turned out to be 12%. The molecule further had a Ki in experiment [2] of 75 µM. As to `N=C(N)NCCC[C@H](NC(=O)[C@H](CCCCN)NC(=O)[C@H](CCCCN)NC(=O)Cc1ccccc1)C(=O)NCC(N)=O` [inhibitor 18] (HELM PEPTIDE1{[O=C(Cc1ccccc1)[*:2]].K.K.R.G.[am]}$$$$V2.0), in experiment [1], the inhibition at 100 µM was 30.7%. Besides, the Ki in experiment [2] amounted to 2.56 µM. In the same order, the values of `N=C(N)NCCC[C@H](NC(=O)[C@H](CCCCN)NC(=O)[C@H](CCCCN)NC(=O)CC1CCCCC1)C(N)=O` [inhibitor 41] are 36.7% and 4.8 µM.

Regarding `N=C(N)NCCC[C@H](NC(=O)[C@H](CCCCN)NC(=O)[C@H](CCCCN)NC(=O)Cc1ccc2c(c1)OCO2)C(N)=O` [inhibitor 32], the inhibition at 100 µM in experiment [1] was determined as 19.9%. Also, the Ki in experiment [2] was 0.68 µM. As for `N=C(N)NCCC[C@H](NC(=O)[C@H](CCCCN)NC(=O)[C@H](CCCCN)NC(=O)Cc1ccc(O)cc1)C(N)=O` [inhibitor 33], in experiment [1], the inhibition at 100 µM turned out to be 27.5%. Further, in experiment [2], the Ki was determined as 0.54 µM. 4-GMe-Phac-Lys-Lys-GCMA: the Ki was found to be 67 µM in experiment [1] (DENV-2 NS2B-NS3 construct, substrate Phac-Lys-Arg-Arg-AMC, Dixon plots) and 0.23 µM in experiment [2]. 4-OH-Phac-Lys-Lys-Arg-NH2 (peptide): the Ki in experiment [3] is 0.54 µM. Same read-out and setting: for Phac-Lys-Lys-Arg-Sar-NH2 (peptide) the value was 50 µM.

`N=C(N)NCCC[C@H](NC(=O)[C@H](CCCCN)NC(=O)[C@H](CCCCN)NC(=O)Cc1ccccc1)C(=O)NCCCC(N)=O` [inhibitor 25] (HELM PEPTIDE1{[O=C(Cc1ccccc1)[*:2]].K.K.R.[O=C(CCCN[*:1])[*:2]].[am]}$$$$V2.0): the inhibition at 100 µM in experiment [1] stood at 26.3%. In experiment [2], this molecule gave a Ki of 15 µM.

With Phac-Lys-Lys-Arg-Gaba-NH2 (peptide), in experiment [3], the Ki was 15 µM. For `N=C(N)NCCC[C@H](NC(=O)[C@H](CCCCN)NC(=O)[C@H](CCCCN)NC(=O)Cc1ccccc1)C(=O)N1CCC[C@H]1C(N)=O` [inhibitor 23] (HELM PEPTIDE1{[O=C(Cc1ccccc1)[*:2]].K.K.R.P.[am]}$$$$V2.0), in experiment [1], the inhibition at 100 µM came out at 5.2%. The Ki in experiment [2] was 200 µM. Take “Cyclohexylacetic acid-Lys-Lys-Arg-NH2 (peptide)”: in experiment [3], the Ki is 4.8 µM. 4-Phenyl-Phac-Lys-Lys-Arg-NH2 (peptide) came in with a Ki in experiment [3] of 0.53 µM.

In experiment [3], Phac-Lys-Lys-Arg-NH2 (peptide) returned a Ki of 2.47 µM. Same read-out and setting: the figure for “1-Adamantylglycine-Lys-Lys-Arg-NH2 (peptide)” is 70 µM. `N=C(N)NCCC[C@H](NC(=O)[C@H](CCCCN)NC(=O)[C@H](CCCCN)NC(=O)Cc1ccccc1)C(=O)O` [inhibitor 28, Phac-Lys-Lys-Arg-OH] (HELM PEPTIDE1{[O=C(Cc1ccccc1)[*:2]].K.K.R}$$$$V2.0) yielded a Ki in experiment [2] of 27 µM.

With “D/L-α-phenylglycine-Lys-Lys-Arg-NH2 (peptide)”, the Ki in experiment [3] amounted to 3.6 µM. With Phac-Lys-Lys-Arg-Val-NH2 (peptide), the Ki in experiment [3] is 105 µM. In experiment [3], Phac-Lys-Lys-Arg-Tle-NH2 (peptide) yielded a Ki of 140 µM. On the same count and under the same terms, for Phac-Lys-Lys-Arg-Aca-NH2 (peptide) the value was 17 µM; for Phac-Lys-Lys-Arg-Pro-NH2 (peptide), 200 µM; for Phac-Lys-Lys-Arg-Ala-NH2 (peptide), 25 µM. Molecule 3-NH2-Phac-Lys-Lys-Arg-NH2 (peptide) returned a Ki in experiment [3] of 1.2 µM. As for 3,4-Cl2-Phac-Lys-Lys-Arg-NH2 (peptide), the Ki in experiment [3] came to 1.13 µM.

On to “3,4-Cl2-Phac-Lys-Lys-Arg-Gly-NH2 (peptide)”, for which, in experiment [3], the Ki is 1.8 µM. As for 4-AMe-Phac-Lys-Lys-Arg-NH2 (peptide), in experiment [3], the Ki was determined as 0.38 µM. “3,4-(Methylenedioxy)-Phac-Lys-Lys-Arg-NH2 (peptide)” gave a Ki in experiment [3] of 0.68 µM. As for “AC-D/L-α-phenylglycine-Lys-Lys-Arg-NH2 (peptide)”, in experiment [3], the Ki was determined as 4.18 µM.

Take Phac-Lys-Lys-Arg-DAla-NH2 (peptide): the Ki in experiment [3] came to 75 µM. `N=C(N)NCc1ccc(CC(NC(=O)Cc2ccccc2)C(=O)NC(CCCCN)C(=O)NCC2CCC(NC(=N)N)CC2)cc1` (centres unmarked) [inhibitor 9]: the Ki in experiment [2] stood at 44 µM. On to 3-AMe-Phac-Lys-Lys-Arg-NH2 (peptide), for which the Ki in experiment [3] was found to be 0.36 µM. On to Phac-Lys-Lys-Arg-Gly-NH2 (peptide), for which, in experiment [3], the Ki was found to be 2.56 µM.

Take 3-GMe-Phac-Lys-Lys-Arg-NH2 (peptide): in experiment [3], the Ki was 0.18 µM. In experiment [3], “1-Adamantylacetic acid-Lys-Lys-Arg-NH2 (peptide)” yielded a Ki of 13.8 µM. Molecule “α-Cyclohexylglycine-Lys-Lys-Arg-NH2 (peptide)” gave a Ki in experiment [3] of 26.3 µM.

Take `N=C(N)NCCC[C@H](NC(=O)[C@H](CCCCN)NC(=O)[C@H](CCCCN)NC(=O)C(N)C1CCCCC1)C(N)=O` (some centres unmarked) [inhibitor 42] (HELM PEPTIDE1{[NC(C(=O)[*:2])C1CCCCC1].K.K.R.[am]}$$$$V2.0): the inhibition at 100 µM in experiment [1] is 31.7%.

B1: Phac-Lys-Lys-Arg-Gly-Gly-NH2 (peptide)
peptide: KKRGG
HELM: PEPTIDE1{[O=C(Cc1ccccc1)[*:2]].K.K.R.G.G.[am]}$$$$V2.0
SMILES: N=C(N)NCCC[C@H](NC(=O)[C@H](CCCCN)NC(=O)[C@H](CCCCN)NC(=O)Cc1ccccc1)C(=O)NCC(=O)NCC(N)=O
B1 returned a Ki in experiment [3] of 1.56 µM.
